Like-named read-outs stand apart in the source and are kept apart here. Non-standard residues stand in square brackets, D forms with d. Residues, ends and D or L forms follow the SMILES beside them. Tle = CC(C)(C)[C@H](N)C(=O)O; Dab = NCC[C@H](N)C(=O)O; Aib = CC(C)(N)C(=O)O
Assays:
[1] = plasma stability test with alteplase added, human plasma; type: in vitro ADME; conditions: Human plasma + rt-PA (50 µg/mL alteplase), 25 µM
Description: (§1) Solution preparation: An appropriate amount of a test polypeptide compound was weighed out and dissolved in an appropriate amount of 1× PBS to form a 1 mM test solution. NA-1 and NoNO42 were used as positive drugs, propantheline bromide was used as a human plasma test control, and lovastatin was used as a rat plasma test control. Plasma stability test: 12.5 µL of the 1 mM test solution was added to a 495 µL pre-incubated plasma sample. […] For each incubation time, two parallel samples were set. Subsequently, 200 µL of stop solution was added to stop the incubation, and the mixtures were vortexed for 5 min. Then the mixtures were centrifuged at 10,000 rpm at 4 °C for 10 min to remove the protein in the sample, and 70 µL of the supernatant was transferred to a new 96-well plate (70 µL of water was added to each well beforehand) and well mixed. Plasma stability test with alteplase added: An appropriate amount of solid alteplase was weighed out, and an appropriate volume of water was added. The mixture was vortexed to dissolve alteplase, forming a 1 mg/mL solution of alteplase. 250 µL of the 1 mg/mL solution of alteplase was added to 4750 µL of plasma to form a plasma sample containing 50 µg/mL alteplase. The other procedures were the same as in the aforementioned "plasma stability test", with the difference being that the plasma sample containing 50 µg/mL alteplase was used instead of plasma. […] Sample pretreatment: […] LC-MS analysis: […] (2) Mass-spectrometric conditions: The mass spectrometry analysis used an electrospray ionization (ESI) source, a positive ion analysis mode, and a multi-reaction monitoring (MRM) scan mode. […] The plasma stability of the polypeptide compound

[2] = plasma stability test, rat plasma; type: in vitro ADME; conditions: Rat plasma, 25 µM; for remaining at 0.5 h, 25 µM: 30min; for remaining at 1 h, 25 µM: 60min
Description: as §1, with “mixed.” for “mixed. Plasma stability test with alteplase added: An appropriate amount of solid alteplase was weighed out, and an appropriate volume of water was added. The mixture was vortexed to dissolve alteplase, forming a 1 mg/mL solution of alteplase. 250 µL of the 1 mg/mL solution of alteplase was added to 4750 µL of plasma to form a plasma sample containing 50 µg/mL alteplase. The other procedures were the same as in the aforementioned "plasma stability test", with the difference being that the plasma sample containing 50 µg/mL alteplase was used instead of plasma.”

[3] = tested on: histamine release; assay: ability to induce histamine release in beagle dogs (plasma); type: in vivo; parameters: Histamine levels (sums of detected histamine and 3-methylhistamine): unit not given here; conditions: for Histamine levels (sums of detected histamine and 3-methylhistamine): beagle dog plasma
Description: With beagle dogs as test animals, the ability of a polypeptide compound administered via single intravenous infusion to induce histamine release in dogs (plasma) was studied.
This test was performed synchronously with Test Examples 3.9, with four animals per group and blood collection time points set as follows: before administration (0 h), and 2 min, 5 min, and 15 min after the end of intravenous infusion.
Sample analysis and data processing were performed with reference to the methods in 3.7.3. Table 10. Histamine levels at different time points

[4] = tested on: human whole blood; assay: hemolysis risk test in human whole blood; type: cell-based; conditions: for Hemolysis rate (%): Human, 37 °C 1 h
Description: This test example assessed whether a polypeptide compound causes hemolytic reactions in rat, rabbit, and human whole blood.
Preparation of red blood cell suspension: 100 µL of fresh whole blood was collected, and 900 µL of 1× PBS solution was then added. The mixture was shaken on a plate shaker at 30 rpm for 5 min and then centrifuged at 1000 g for 5 min, and the supernatant was discarded. The above washing step was repeated until the supernatant no longer appeared red. The suspension was set aside for later use.
Preparation of test polypeptide solutions: An appropriate amount of 1× PBS solution was added to a powdered polypeptide, and the polypeptide was dissolved to form a standard stock solution. […] Meanwhile, blank 1× PBS was used as a negative control, and a 1× PBS solution containing 0.1% Triton X-100 was used as a positive control.
Incubation: A test solution (500 µL) was added to the red blood cell suspension, and then the mixture was well shaken on a plate shaker at 30 rpm for 5 min, incubated at 37 °C for 1 h, and centrifuged at 1000 g for 5 min.
100 µL of the supernatant was transferred to a single well of a microplate. The absorbance at 540 nm was measured using a SpectraMax M5 microplate reader, and data analysis was performed using GraphPad Prism 9. The hemolysis rate (%) was calculated using the formula: (test sample absorbance - negative control absorbance) / (positive control absorbance - negative control absorbance) × 100%. A rate of less than 5% indicates the absence of hemolysis, while a rate of greater than 5% indicates the presence of hemolysis. Table 3. Testing of the hemolysis risk of the polypeptide compound

[5] = pharmacokinetic study of different doses in rats; type: in vivo, SD rats; conditions: SD, rat, plasma, intravenous bolus injection; for AUC(0-t): blood to 180 min, n = 3, read-out: AUC(0-t); for AUC(0-inf) / MRT / half-life: n = 3; for Cmax: n = 3, read-out: Cmax
Description: For example, at high doses, the agent causes symptoms such as tachycardia and blood pressure reduction due to excessive histamine release. Therefore, the pharmacokinetic profile of polypeptide compound 14 was assessed again using three doses: a high dose (3 nmol/g), a medium dose (1 nmol/g), and a low dose (0.3 nmol/g). […] Plasma concentration-time curves were plotted, and the pharmacokinetic parameters were calculated using WinNonlin software. Table 6. Intravenous bolus injection pharmacokinetic parameters in rats (different doses, n = 3)

[6] = read-out: Relative remaining compound content (%)

CC(C)[C@H](NC(=O)[C@H](CC(=O)O)NC(=O)[C@@H](NC(=O)[C@@H](NC(=O)[C@@H](NC(=O)[C@@H](NC(=O)[C@H](CCN)NC(=O)C(C)(C)NC(=O)CNC(=O)[C@@H](CCCNC(=N)N)NC(=O)[C@H](CCCNC(=N)N)NC(=O)[C@H](CCCNC(=N)N)NC(=O)[C@H](CCC(N)=O)NC(=O)[C@@H](CCCNC(=N)N)NC(=O)[C@H](CCCNC(=N)N)NC(=O)[C@H](CCCCN)NC(=O)[C@H](CCCCN)NC(=O)[C@H](N)CCCNC(=N)N)[C@@H](C)O)C(C)(C)C)C(C)(C)C)[C@@H](C)O)C(=O)O [Polypeptide compound 22, r-K-K-R-r-Q-R-R-r-G-Aib-Dab-T-Tle-Tle-T-D-V] (H-[dR]KKR[dR]QRR[dR]G[Aib][Dab]T[Tle][Tle]TDV-OH)
Relative remaining compound content (%) ([1]; 0min (standard 100%)): 100.0% | Relative remaining compound content (%) ([1]; 10min): 97.9% | Relative remaining compound content (%) ([1]; 20min): 95.8% | Relative remaining compound content (%) ([1]; 30min): 102.8% | Relative remaining compound content (%) ([1]; 60min): 91.3% | Relative remaining compound content (%) ([1]; 120min): 95.6% | Relative remaining compound content (%) ([2]; 0min (standard 100%)): 100.0% | remaining at 10 min, 25 µM [2, 6]: 116% | remaining at 20 min, 25 µM [2, 6]: 105% | remaining at 0.5 h, 25 µM [2, 6]: 110% | remaining at 1 h, 25 µM [2, 6]: 102% | Relative remaining compound content (%) ([2]; 120min): 124.8% | Histamine levels (sums of detected histamine and 3-methylhistamine) ([3]; 0.4 nmol/g, 0 min (before administration)): 6.28±5.01 | Histamine levels (sums of detected histamine and 3-methylhistamine) ([3]; 0.4 nmol/g, 2 min after the end of intravenous infusion): 9.45±7.38 | Histamine levels (sums of detected histamine and 3-methylhistamine) ([3]; 0.4 nmol/g, 5 min after the end of intravenous infusion): 11.70±8.39 | Histamine levels (sums of detected histamine and 3-methylhistamine) ([3]; 0.4 nmol/g, 15 min after the end of intravenous infusion): 7.97±2.75 | Histamine levels (sums of detected histamine and 3-methylhistamine) ([3]; 1.2 nmol/g, 0 min (before administration)): 7.06±4.14 | Histamine levels (sums of detected histamine and 3-methylhistamine) ([3]; 1.2 nmol/g, 2 min after the end of intravenous infusion): 12.71±10.47 | Histamine levels (sums of detected histamine and 3-methylhistamine) ([3]; 1.2 nmol/g, 5 min after the end of intravenous infusion): 6.24±1.78 | Histamine levels (sums of detected histamine and 3-methylhistamine) ([3]; 1.2 nmol/g, 15 min after the end of intravenous infusion): 5.81±1.44 | changes in histamine levels compared to before administration ([3]; beagle dogs, both doses (0.4 and 1.2 nmol/g)): no significant changes in histamine levels

CC(C)[C@H](NC(=O)[C@H](CC(=O)O)NC(=O)[C@@H](NC(=O)[C@@H](NC(=O)[C@@H](NC(=O)[C@@H](NC(=O)[C@H](CCN)NC(=O)C(C)(C)NC(=O)CNC(=O)[C@@H](CCCNC(=N)N)NC(=O)[C@@H](CCCNC(=N)N)NC(=O)[C@@H](CCCNC(=N)N)NC(=O)[C@@H](CCC(N)=O)NC(=O)[C@@H](CCCNC(=N)N)NC(=O)[C@@H](CCCNC(=N)N)NC(=O)[C@@H](CCCCN)NC(=O)[C@@H](CCCCN)NC(=O)[C@@H](CCCNC(=N)N)NC(=O)CNC(=O)[C@H](N)Cc1ccc(O)cc1)[C@@H](C)O)C(C)(C)C)C(C)(C)C)[C@@H](C)O)C(=O)O [Polypeptide compound 14, y-G-r-k-k-r-r-q-r-r-r-G-Aib-Dab-T-Tle-Tle-T-D-V] (H-[dY]G[dR][dK][dK][dR][dR][dQ][dR][dR][dR]G[Aib][Dab]T[Tle][Tle]TDV-OH)
Relative remaining compound content (%) ([1]; 0min (standard 100%)): 100.0% | Relative remaining compound content (%) ([1]; 10min): 98.6% | Relative remaining compound content (%) ([1]; 20min): 89.8% | Relative remaining compound content (%) ([1]; 30min): 85.8% | Relative remaining compound content (%) ([1]; 60min): 91.2% | Relative remaining compound content (%) ([1]; 120min): 92.3% | Relative remaining compound content (%) ([2]; 0min (standard 100%)): 100.0% | remaining at 10 min, 25 µM [2, 6]: 105% | remaining at 20 min, 25 µM [2, 6]: 117% | remaining at 0.5 h, 25 µM [2, 6]: 107% | remaining at 1 h, 25 µM [2, 6]: 109% | remaining at 2 h, 25 µM ([2]; 120min, read-out: Relative remaining compound content (%)): 104% | Hemolysis rate (%) ([4]; 1.0 µM): 0.09% | Hemolysis rate (%) ([4]; 2.5 µM): 0.38% | Hemolysis rate (%) ([4]; 5.0 µM): 0.15% | Hemolysis rate (%) ([4]; 10 µM): 0.31% | Hemolysis rate (%) ([4]; 25 µM): 0.08% | Hemolysis rate (%) ([4]; 50 µM): 0.53% | hemolysis rates ([4]; human whole blood, concentration range of 1 to 50 µM): less than 5% | AUC(0-t) ([5]; 0.3 nmol/g): 1230 ng·h/mL | AUC(0-inf) ([5]; 0.3 nmol/g): 1280 ng·h/mL | MRT ([5]; 0.3 nmol/g): 0.856 h | half-life ([5]; 0.3 nmol/g): 0.723 h | Cmax ([5]; 0.3 nmol/g): 1870 ng/mL | AUC(0-t) ([5]; 1 nmol/g): 5860 ng·h/mL | AUC(0-inf) ([5]; 1 nmol/g): 6600 ng·h/mL | MRT ([5]; 1 nmol/g): 1.31 h | half-life ([5]; 1 nmol/g): 0.967 h | Cmax ([5]; 1 nmol/g): 5970 ng/mL | AUC(0-t) ([5]; 3 nmol/g): 15000 ng·h/mL | AUC(0-inf) ([5]; 3 nmol/g): 17700 ng·h/mL | MRT ([5]; 3 nmol/g): 1.47 h | half-life ([5]; 3 nmol/g): 1.15 h | Cmax ([5]; 3 nmol/g): 18300 ng/mL

— EP4650362A1, “NEUROPROTECTIVE PSD-95 POLYPEPTIDE INHIBITOR AND USE THEREOF” (Beijing Tuo Jie Biopharmaceutical Co. Ltd., priority 2023, dated 2024)
